# Laboratory results reported in PubChem BioAssay AID1963432 (Molecular Pharmacology Branch, DTP, NCI, 2024).
# System: SYO-1 complex spheroid growth, percent test/control
# Assay: Anticancer human tumor SYO-1 cell line growth inhibition [Asc];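 note: compound exposure lasted 7 days after spheroids grew 3 days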;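 for viability, T/C: 100% = DMSO vehicle control viability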
# Details: for IC50: curve of first compound; for viability, T/C: stronger effect = lower value
# Method in brief: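 Concentration series start at each agent's clinical Cmax, or at 10 microM when none is established, and drop in half-log steps; agents are applied alone or together to complex spheroids built with HUVEC and hMSC.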
# [1] = second compound 0.0316 µM, first compound 0.00316 µM
# [2] = second compound 0.0316 µM, first compound 0.01 µM
# [3] = second compound 0.0316 µM, first compound 0.0316 µM
# [4] = second compound 0.0316 µM, first compound 0.1 µM
# [5] = second compound 0.1 µM, first compound 0.00316 µM
# [6] = second compound 0.1 µM, first compound 0.01 µM
# [7] = second compound 0.1 µM, first compound 0.0316 µM
# [8] = second compound 0.1 µM, first compound 0.1 µM
# [9] = second compound 0.316 µM, first compound 0.00316 µM
# [10] = second compound 0.316 µM, first compound 0.01 µM
# [11] = second compound 0.316 µM, first compound 0.0316 µM
# [12] = second compound 0.316 µM, first compound 0.1 µM
# [13] = second compound 1 µM, first compound 0.00316 µM
# [14] = second compound 1 µM, first compound 0.01 µM
# [15] = second compound 1 µM, first compound 0.0316 µM
# [16] = second compound 1 µM, first compound 0.1 µM
# [17] = second compound 3.16 µM, first compound 0.00316 µM
# [18] = second compound 3.16 µM, first compound 0.01 µM
# [19] = second compound 3.16 µM, first compound 0.0316 µM
# [20] = second compound 3.16 µM, first compound 0.1 µM
# [21] = second compound 10 µM, first compound 0.00316 µM
# [22] = second compound 10 µM, first compound 0.01 µM
# [23] = second compound 10 µM, first compound 0.0316 µM
# [24] = second compound 10 µM, first compound 0.1 µM
compound,measurement,setting,value
COc1c(OCCCN2CCOCC2)ccc2c3n(c(=NC(=O)c4cnc(N)nc4)nc12)CCN3 + Cc1c(S(C)(=O)=O)c(-c2cc(F)cc(N3CCN(c4ccc(NS(=O)(=O)c5ccc(NC(CCN6CCC(C(=O)OCCCP(=O)(O)O)CC6)CSc6ccccc6)c(S(=O)(=O)C(F)(F)F)c5)cc4)CC3)c2)c(-c2ccc(Cl)cc2)n1C(C)C,IC50,second compound 0.0316 µM,652 nM
same,IC50,second compound 0.1 µM,596 nM
same,IC50,second compound 0.316 µM,509 nM
same,IC50,second compound 1 µM,452 nM
same,IC50,second compound 3.16 µM,300 nM
same,IC50,second compound 10 µM,194 nM
same,"viability, T/C",[1],104%
same,"viability, T/C",[2],93.8%
same,"viability, T/C",[3],93.5%
same,"viability, T/C",[4],83.1%
same,"viability, T/C","second compound 0.0316 µM, first compound 0.316 µM",74.6%
same,"viability, T/C","second compound 0.0316 µM, first compound 1 µM",36.4%
same,"viability, T/C",[5],99.2%
same,"viability, T/C",[6],97%
same,"viability, T/C",[7],91.8%
same,"viability, T/C",[8],80.3%
same,"viability, T/C","second compound 0.1 µM, first compound 0.316 µM",69.5%
same,"viability, T/C","second compound 0.1 µM, first compound 1 µM",35.6%
same,"viability, T/C",[9],90.7%
same,"viability, T/C",[10],98.3%
same,"viability, T/C",[11],94.1%
same,"viability, T/C",[12],82.4%
same,"viability, T/C","second compound 0.316 µM, first compound 0.316 µM",65.8%
same,"viability, T/C","second compound 0.316 µM, first compound 1 µM",28.5%
same,"viability, T/C",[13],91.5%
same,"viability, T/C",[14],100%
same,"viability, T/C",[15],94.7%
same,"viability, T/C",[16],87.5%
same,"viability, T/C","second compound 1 µM, first compound 0.316 µM",63.4%
same,"viability, T/C","second compound 1 µM, first compound 1 µM",20.5%
same,"viability, T/C",[17],92.5%
same,"viability, T/C",[18],91.1%
same,"viability, T/C",[19],92.3%
same,"viability, T/C",[20],78.1%
same,"viability, T/C","second compound 3.16 µM, first compound 0.316 µM",49%
same,"viability, T/C","second compound 3.16 µM, first compound 1 µM",11.6%
same,"viability, T/C",[21],83.2%
same,"viability, T/C",[22],88.7%
same,"viability, T/C",[23],72.3%
same,"viability, T/C",[24],62%
same,"viability, T/C","second compound 10 µM, first compound 0.316 µM",41.7%
same,"viability, T/C","second compound 10 µM, first compound 1 µM",6.85%
NC(=O)C(=Cn1cnc(-c2cc(C(F)(F)F)cc(C(F)(F)F)c2)n1)c1cncnc1 + Cc1c(S(C)(=O)=O)c(-c2cc(F)cc(N3CCN(c4ccc(NS(=O)(=O)c5ccc(NC(CCN6CCC(C(=O)OCCCP(=O)(O)O)CC6)CSc6ccccc6)c(S(=O)(=O)C(F)(F)F)c5)cc4)CC3)c2)c(-c2ccc(Cl)cc2)n1C(C)C,IC50,second compound 0.0316 µM,170 nM
same,IC50,second compound 0.1 µM,165 nM
same,IC50,second compound 0.316 µM,159 nM
same,IC50,second compound 1 µM,155 nM
same,IC50,second compound 3.16 µM,148 nM
same,IC50,second compound 10 µM,110 nM
same,"viability, T/C","second compound 0.0316 µM, first compound 0.000949 µM",98.1%
same,"viability, T/C","second compound 0.0316 µM, first compound 0.003 µM",102%
same,"viability, T/C","second compound 0.0316 µM, first compound 0.00949 µM",86.8%
same,"viability, T/C","second compound 0.0316 µM, first compound 0.03 µM",93.8%
same,"viability, T/C","second compound 0.0316 µM, first compound 0.0949 µM",96.3%
same,"viability, T/C","second compound 0.0316 µM, first compound 0.3 µM",5.53%
same,"viability, T/C","second compound 0.1 µM, first compound 0.000949 µM",97.6%
same,"viability, T/C","second compound 0.1 µM, first compound 0.003 µM",94%
same,"viability, T/C","second compound 0.1 µM, first compound 0.00949 µM",89.9%
same,"viability, T/C","second compound 0.1 µM, first compound 0.03 µM",93.9%
same,"viability, T/C","second compound 0.1 µM, first compound 0.0949 µM",95.7%
same,"viability, T/C","second compound 0.1 µM, first compound 0.3 µM",2.56%
same,"viability, T/C","second compound 0.316 µM, first compound 0.000949 µM",95%
same,"viability, T/C","second compound 0.316 µM, first compound 0.003 µM",94.8%
same,"viability, T/C","second compound 0.316 µM, first compound 0.00949 µM",92.9%
same,"viability, T/C","second compound 0.316 µM, first compound 0.03 µM",92.8%
same,"viability, T/C","second compound 0.316 µM, first compound 0.0949 µM",89.1%
same,"viability, T/C","second compound 0.316 µM, first compound 0.3 µM",1.51%
same,"viability, T/C","second compound 1 µM, first compound 0.000949 µM",101%
same,"viability, T/C","second compound 1 µM, first compound 0.003 µM",91.2%
same,"viability, T/C","second compound 1 µM, first compound 0.00949 µM",86%
same,"viability, T/C","second compound 1 µM, first compound 0.03 µM",90.8%
same,"viability, T/C","second compound 1 µM, first compound 0.0949 µM",86.5%
same,"viability, T/C","second compound 1 µM, first compound 0.3 µM",0.55%
same,"viability, T/C","second compound 3.16 µM, first compound 0.000949 µM",91.2%
same,"viability, T/C","second compound 3.16 µM, first compound 0.003 µM",87.3%
same,"viability, T/C","second compound 3.16 µM, first compound 0.00949 µM",84%
same,"viability, T/C","second compound 3.16 µM, first compound 0.03 µM",86.3%
same,"viability, T/C","second compound 3.16 µM, first compound 0.0949 µM",81.3%
same,"viability, T/C","second compound 3.16 µM, first compound 0.3 µM",0.31%
same,"viability, T/C","second compound 10 µM, first compound 0.000949 µM",89%
same,"viability, T/C","second compound 10 µM, first compound 0.003 µM",76.8%
same,"viability, T/C","second compound 10 µM, first compound 0.00949 µM",75.6%
same,"viability, T/C","second compound 10 µM, first compound 0.03 µM",67.2%
same,"viability, T/C","second compound 10 µM, first compound 0.0949 µM",61.6%
same,"viability, T/C","second compound 10 µM, first compound 0.3 µM",0.38%
NC1CCC(NC2CC2c2ccccc2)CC1 (stereo unspecified) + Cc1c(S(C)(=O)=O)c(-c2cc(F)cc(N3CCN(c4ccc(NS(=O)(=O)c5ccc(NC(CCN6CCC(C(=O)OCCCP(=O)(O)O)CC6)CSc6ccccc6)c(S(=O)(=O)C(F)(F)F)c5)cc4)CC3)c2)c(-c2ccc(Cl)cc2)n1C(C)C,IC50,second compound 0.0316 µM,> 100 nM
same,IC50,second compound 0.1 µM,> 100 nM
same,IC50,second compound 0.316 µM,> 100 nM
same,IC50,second compound 1 µM,> 100 nM
same,IC50,second compound 3.16 µM,> 100 nM
same,IC50,second compound 10 µM,> 100 nM
same,"viability, T/C","second compound 0.0316 µM, first compound 0.000316 µM",100%
same,"viability, T/C","second compound 0.0316 µM, first compound 0.001 µM",92.1%
same,"viability, T/C",[1],90.5%
same,"viability, T/C",[2],84.8%
same,"viability, T/C",[3],86.9%
same,"viability, T/C",[4],89%
same,"viability, T/C","second compound 0.1 µM, first compound 0.000316 µM",96.5%
same,"viability, T/C","second compound 0.1 µM, first compound 0.001 µM",92.7%
same,"viability, T/C",[5],86.3%
same,"viability, T/C",[6],87.1%
same,"viability, T/C",[7],91.8%
same,"viability, T/C",[8],86.5%
same,"viability, T/C","second compound 0.316 µM, first compound 0.000316 µM",105%
same,"viability, T/C","second compound 0.316 µM, first compound 0.001 µM",91.8%
same,"viability, T/C",[9],87.9%
same,"viability, T/C",[10],91.7%
same,"viability, T/C",[11],89.1%
same,"viability, T/C",[12],86.9%
same,"viability, T/C","second compound 1 µM, first compound 0.000316 µM",92.2%
same,"viability, T/C","second compound 1 µM, first compound 0.001 µM",88.5%
same,"viability, T/C",[13],96.9%
same,"viability, T/C",[14],92.3%
same,"viability, T/C",[15],90.6%
same,"viability, T/C",[16],85.8%
same,"viability, T/C","second compound 3.16 µM, first compound 0.000316 µM",91.3%
same,"viability, T/C","second compound 3.16 µM, first compound 0.001 µM",85.3%
same,"viability, T/C",[17],88.7%
same,"viability, T/C",[18],85.8%
same,"viability, T/C",[19],79.8%
same,"viability, T/C",[20],87.2%
same,"viability, T/C","second compound 10 µM, first compound 0.000316 µM",85.7%
same,"viability, T/C","second compound 10 µM, first compound 0.001 µM",85.4%
same,"viability, T/C",[21],80.5%
same,"viability, T/C",[22],82.4%
same,"viability, T/C",[23],83.3%
same,"viability, T/C",[24],79.7%
